Test results: US6476189B1, “Antibacterial peptides and antibacterial agents containing such peptides as an effective ingredient” (National Institute of Agrobiological Sciences, priority 1998, dated 2002)
Values after ≈ are worked out from the molar mass of the structure shown. Residues, ends and D or L forms follow the SMILES beside them.

Experiments:
Type in all cases: cell-based
Pseudomonas aeruginosa = tested on: Pseudomonas aeruginosa
Experimental: (§1) Minimum Inhibitory Concentration (MIC) of these antibacterial peptides (1) to (5) against Staphylococcus aureus, methicillin resistant Staphylococcus aureus (MRSA), Escherichia coli and Pseudomonas aeruginosa was determined.

Staphylococcus aureus = tested on: Staphylococcus aureus
Experimental: as §1

[1] = tested on: methicillin resistant Staphylococcus aureus (MRSA)
Experimental: as §1

| Structure (SMILES) | MIC P. aeruginosa (Pseudomonas aeruginosa) [µg/mL] | MIC S. aureus (Staphylococcus aureus) [µg/mL] | MIC MRSA [1] [µg/mL] |
| --- | --- | --- | --- |
| CC[C@H](C)[C@H](NC(=O)[C@H](C)NC(=O)[C@H](CC(C)C)NC(=O)[C@H](CCCNC(=N)N)NC(=O)[C@H](CC(C)C)NC(=O)[C@H](C)N)C(=O)N[C@@H](CCCNC(=N)N)C(=O)N[C@@H](CCCCN)C(=O)N[C@@H](CCCNC(=N)N)C(N)=O [present peptide (1), Ala-Leu-Arg-Leu-Ala-Ile-Arg-Lys-Arg-NH2] (H-ALRLAIRKR-NH2; N-terminus assumed) | >15 | 5 (≈ 4.56 µM) |  |
| CC[C@H](C)[C@H](NC(=O)[C@H](C)NC(=O)[C@H](CC(C)C)NC(=O)[C@H](CC(C)C)NC(=O)[C@H](CC(C)C)NC(=O)[C@H](C)N)C(=O)N[C@@H](CCCNC(=N)N)C(=O)N[C@@H](CCCCN)C(=O)N[C@@H](CCCNC(=N)N)C(N)=O [present peptide (2), Ala-Leu-Leu-Leu-Ala-Ile-Arg-Lys-Arg-NH2] (H-ALLLAIRKR-NH2; N-terminus assumed) | 4 (≈ 3.8 µM) | 4 (≈ 3.8 µM) | 40 (≈ 38 µM) |
| CC[C@H](C)[C@H](NC(=O)[C@H](C)NC(=O)[C@H](CC(C)C)NC(=O)[C@H](CC(C)C)NC(=O)[C@H](Cc1c[nH]c2ccccc12)NC(=O)[C@H](C)N)C(=O)N[C@@H](CCCNC(=N)N)C(=O)N[C@@H](CCCCN)C(=O)N[C@@H](CCCNC(=N)N)C(N)=O [present peptide (3), Ala-Trp-Leu-Leu-Ala-Ile-Arg-Lys-Arg-NH2] (H-AWLLAIRKR-NH2; N-terminus assumed) | 4 (≈ 3.55 µM) | 3 (≈ 2.67 µM) | 25 (≈ 22.2 µM) |
| CC[C@H](C)[C@H](NC(=O)[C@H](C)NC(=O)[C@H](CC(C)C)NC(=O)[C@H](Cc1ccc(O)cc1)NC(=O)[C@H](CC(C)C)NC(=O)[C@H](C)N)C(=O)N[C@@H](CCCNC(=N)N)C(=O)N[C@@H](CCCCN)C(=O)N[C@@H](CCCNC(=N)N)C(N)=O [present peptide (4), Ala-Leu-Tyr-Leu-Ala-Ile-Arg-Lys-Arg-NH2] | 4 (≈ 3.63 µM) | 2 (≈ 1.81 µM) | 30 (≈ 27.2 µM) |
| CC[C@H](C)[C@H](NC(=O)[C@H](C)NC(=O)[C@H](CC(C)C)NC(=O)[C@H](Cc1c[nH]c2ccccc12)NC(=O)[C@H](CC(C)C)NC(=O)[C@H](C)N)C(=O)N[C@@H](CCCNC(=N)N)C(=O)N[C@@H](CCCCN)C(=O)N[C@@H](CCCNC(=N)N)C(N)=O [present peptide (5), Ala-Leu-Trp-Leu-Ala-Ile-Arg-Lys-Arg-NH2] (H-ALWLAIRKR-NH2; N-terminus assumed) | 10 (≈ 8.89 µM) | 4 (≈ 3.55 µM) | 40 (≈ 35.5 µM) |
